Reference: patent publication US8987195B2 (priority 2012, dated 2015)
Read-outs that look alike come from different tables or passages of the source.

Tests used:
[1] = target: HCV NS3/4A protease genotype 1b (Hepatitis C virus genotype 1b, UniProt P26663); assay: HCV NS3/4A protease time-resolved fluorescence (TRF) assay, Ki against genotype 1b; type: biochemical; details: IC50 [gt-1b] (nM), NS3/4A genotype 1b, enzyme 0.2 nM
Procedure, shortened: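 Enzyme 0.2 nM 1b / 0.4 nM A156T / 0.025 nM 3a; 30 min preinc. w/ cpd; 25 nM TRF peptide; 2.5 h RT; ex 340/em 615 time-delayed; 4-param IC50 → Ki = IC50/(1+[S]/KM).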

[2] = test system: HCV genotype 1b replicon; assay: HCV replicon assay, genotype 1b replicon EC50; type: cell-based, Hepatitis C virus; details: genotype 1b replicon, read-out: EC50 [gt-1b]
Procedure, shortened: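 Stable neomycin-selected genotype 1b replicon cells, some carrying luciferase:Neo^r fusion, plated without G418 with a compound dilution series and incubated 24-48 h. Read-out was RNA (^32P-probe protection or TaqMan, normalized to cyclophilin A) or luciferase activity. EC50 from four-parameter fit as percent of DMSO control.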

SMILES | IC50 [1] | EC50 ([2]; Hepatitis C virus) | EC50 [2] | IC50 ([1]; K+ salt) | EC50 ([2]; Hepatitis C virus, K+ salt)
Cc1nc2cc(Cl)ccc2c2c1O[C@]1(CC2)C[C@H]2C(=O)N[C@]3(C(=O)NS(=O)(=O)C4(C)CC4)C[C@H]3/C=C\CCCCC[C@H](NC(=O)OC3CCCC3)C(=O)N2C1 [Example 238, cyclopentyl [(2R,6S,12Z,13aS,14aR,16aS)-8′-chloro-5′-methyl-14a-{[(1-methylcyclopropyl)sulfonyl]carbamoyl}-5,16-dioxo-1,1′,2′,5,6,7,8,9,10,11,13a,14,14a,15,16,16a-hexadecahydrospiro[cyclopropa[e]pyrrolo[1,2-a][1,4]diazacyclopentadecine-2,3′-pyrano[2,3-c]quinolin]-6-yl]carbamate] | 0.02 nM | 7.72 nM |  |  | 
Cc1nc2cc(Cl)ccc2c2c1O[C@]1(CC2)C[C@H]2C(=O)N[C@]3(C(=O)NS(=O)(=O)C4(C)CC4)C[C@H]3/C=C\CCCCC[C@H](NC(=O)OC3CCC3)C(=O)N2C1 [Example 239, cyclobutyl [(2R,6S,12Z,13aS,14aR,16aS)-8′-chloro-5′-methyl-14a-{[(1-methylcyclopropyl)sulfonyl]carbamoyl}-5,16-dioxo-1,1′,2′,5,6,7,8,9,10,11,13a,14,14a,15,16,16a-hexadecahydrospiro[cyclopropa[e]pyrrolo[1,2-a][1,4]diazacyclopentadecine-2,3′-pyrano[2,3-c]quinolin]-6-yl]carbamate] | 0.068 nM | 5.16 nM |  |  | 
Cc1nc2ccccc2c2c1O[C@]1(CC2)C[C@H]2C(=O)N[C@]3(C(=O)NS(=O)(=O)C4(C)CC4)C[C@H]3/C=C\CCCCC[C@H](NC(=O)OC(C)C(F)(F)F)C(=O)N2C1 (stereo partly drawn) [Example 240, 1,1,1-trifluoropropan-2-yl [(2R,6S,12Z,13aS,14aR,16aS)-5′-methyl-14a-{[(1-methylcyclopropyl)sulfonyl]carbamoyl}-5,16-dioxo-1,1′,2′,5,6,7,8,9,10,11,13a,14,14a,15,16,16a-hexadecahydrospiro[cyclopropa[e]pyrrolo[1,2-a][1,4]diazacyclopentadecine-2,3′-pyrano[2,3-c]quinolin]-6-yl]carbamate] | 0.01 nM |  | 2.65 nM |  | 
Cc1nc2ccccc2c2c1O[C@]1(CC2)C[C@H]2C(=O)N[C@]3(C(=O)NS(=O)(=O)C4(C)CC4)C[C@H]3/C=C\CCCCC[C@H](NC(=O)OC(C)C(F)(F)F)C(=O)N2C1 (stereo partly drawn) [Example 241, 1,1,1-trifluoropropan-2-yl [(2R,6S,12Z,13aS,14aR,16aS)-5′-methyl-14a-{[(1-methylcyclopropyl)sulfonyl]carbamoyl}-5,16-dioxo-1,1′,2′,5,6,7,8,9,10,11,13a,14,14a,15,16,16a-hexadecahydrospiro[cyclopropa[e]pyrrolo[1,2-a][1,4]diazacyclopentadecine-2,3′-pyrano[2,3-c]quinolin]-6-yl]carbamate] | 0.012 nM |  | 2.9 nM |  | 
COCC(C)(C)OC(=O)N[C@H]1CCCCC/C=C\[C@@H]2C[C@@]2(C(=O)NS(=O)(=O)C2(C)CC2)NC(=O)[C@@H]2C[C@@]3(CN2C1=O)CC(F)(F)c1c(c(C(C)C)nc2ccc(OC)cc12)O3 [Example 242, 1-methoxy-2-methylpropan-2-yl [(2S,6S,12Z,13aS,14aR,16aS)-1′,1′-difluoro-9′-methoxy-14a-{[(1-methylcyclopropyl)sulfonyl]carbamoyl}-5,16-dioxo-5′-(propan-2-yl)-1,1′,2′,5,6,7,8,9,10,11,13a,14,14a,15,16,16a-hexadecahydrospiro[cyclopropa[e]pyrrolo[1,2-a][1,4]diazacyclopentadecine-2,3′-pyrano[2,3-c]quinolin]-6-yl]carbamate] | 0.022 nM | 3.38 nM |  |  | 
COc1ccc2nc(C(C)C)c3c(c2c1)CC[C@]1(C[C@H]2C(=O)N[C@]4(C(=O)NS(=O)(=O)C5(C)CC5)C[C@H]4/C=C\CCCCC[C@H](NC(=O)OC(C)(C)CCS(C)(=O)=O)C(=O)N2C1)O3 [Example 243, 2-methyl-4-(methylsulfonyl)butan-2-yl [(2R,6S,12Z,13aS,14aR,16aS)-9′-methoxy-14a-{[(1-methylcyclopropyl)sulfonyl]carbamoyl}-5,16-dioxo-5′-(propan-2-yl)-1,1′,2′,5,6,7,8,9,10,11,13a,14,14a,15,16,16a-hexadecahydrospiro[cyclopropa[e]pyrrolo[1,2-a][1,4]diazacyclopentadecine-2,3′-pyrano[2,3-c]quinolin]-6-yl]carbamate] |  |  |  | 0.012 nM | 43 nM
COCCC(C)(C)OC(=O)N[C@H]1CCCCC/C=C\[C@@H]2C[C@@]2(C(=O)NS(=O)(=O)C2(C)CC2)NC(=O)[C@@H]2C[C@@]3(CN2C1=O)CC(F)(F)c1c(c(C(C)C)nc2ccc(OC)cc12)O3 [Example 244, 4-methoxy-2-methylbutan-2-yl [(2S,6S,12Z,13aS,14aR,16aS)-1′,1′-difluoro-9′-methoxy-14a-{[(1-methylcyclopropyl)sulfonyl]carbamoyl}-5,16-dioxo-5′-(propan-2-yl)-1,1′,2′,5,6,7,8,9,10,11,13a,14,14a,15,16,16a-hexadecahydrospiro[cyclopropa[e]pyrrolo[1,2-a][1,4]diazacyclopentadecine-2,3′-pyrano[2,3-c]quinolin]-6-yl]carbamate] | 0.008 nM | 2.89 nM |  |  | 
COc1ccc2nc(C(C)C)c3c(c2c1)C(F)(F)C[C@]1(C[C@H]2C(=O)N[C@]4(C(=O)NS(=O)(=O)C5(C)CC5)C[C@H]4/C=C\CCCCC[C@H](NC(=O)OC(C)(C)CCS(C)(=O)=O)C(=O)N2C1)O3 [Example 245, 2-methyl-4-(methylsulfonyl)butan-2-yl [(2S,6S,12Z,13aS,14aR,16aS)-1′,1′-difluoro-9′-methoxy-14a-{[(1-methylcyclopropyl)sulfonyl]carbamoyl}-5,16-dioxo-5′-(propan-2-yl)-1,1′,2′,5,6,7,8,9,10,11,13a,14,14a,15,16,16a-hexadecahydrospiro[cyclopropa[e]pyrrolo[1,2-a][1,4]diazacyclopentadecine-2,3′-pyrano[2,3-c]quinolin]-6-yl]carbamate] |  |  |  | 0.025 nM | 13.4 nM
Cc1nc2ccc(OC(F)(F)F)cc2c2c1O[C@]1(CC2)C[C@H]2C(=O)N[C@]3(C(=O)NS(=O)(=O)C4(C)CC4)C[C@H]3/C=C\CCCCC[C@H](NC(=O)N3CCCC3)C(=O)N2C1 [Example 246, (2R,6S,12Z,13aS,14aR,16aS)-5′-methyl-N-[(1-methylcyclopropyl)sulfonyl]-5,16-dioxo-6-[(pyrrolidin-1-ylcarbonyl)amino]-9′-(trifluoromethoxy)-1,1′,2′,6,7,8,9,10,11,13a,14,15,16,16a-tetradecahydrospiro[cyclopropa[e]pyrrolo[1,2-a][1,4]diazacyclopentadecine-2,3′-pyrano[2,3-c]quinoline]-14a(5H)-carboxamide] | 0.004 nM | 17.4 nM |  |  | 
COc1ccc2nc(C3CC3)c3c(c2c1)C(F)(F)C[C@]1(C[C@H]2C(=O)N[C@]4(C(=O)NS(=O)(=O)C5(C)CC5)C[C@H]4/C=C\CCCCC[C@H](NC(=O)OCC(C)C)C(=O)N2C1)O3 [Example 248, 2-methylpropyl [(2S,6S,12Z,13aS,14aR,16aS)-5′-cyclopropyl-1′,1′-difluoro-9′-methoxy-14a-{[(1-methylcyclopropyl)sulfonyl]carbamoyl}-5,16-dioxo-1,1′,2′,5,6,7,8,9,10,11,13a,14,14a,15,16,16a-hexadecahydrospiro[cyclopropa[e]pyrrolo[1,2-a][1,4]diazacyclopentadecine-2,3′-pyrano[2,3-c]quinolin]-6-yl]carbamate] |  |  |  | 0.026 nM | 14.7 nM
COc1ccc2nc(C3CC3)c3c(c2c1)C(F)(F)C[C@]1(C[C@H]2C(=O)N[C@]4(C(=O)NS(=O)(=O)C5(C)CC5)C[C@H]4/C=C\CCCCC[C@H](NC(=O)O[C@H](C)C(C)C)C(=O)N2C1)O3 [Example 249, (2R)-3-methylbutan-2-yl [(2S,6S,12Z,13aS,14aR,16aS)-5′-cyclopropyl-1′,1′-difluoro-9′-methoxy-14a-{[(1-methylcyclopropyl)sulfonyl]carbamoyl}-5,16-dioxo-1,1′,2′,5,6,7,8,9,10,11,13a,14,14a,15,16,16a-hexadecahydrospiro[cyclopropa[e]pyrrolo[1,2-a][1,4]diazacyclopentadecine-2,3′-pyrano[2,3-c]quinolin]-6-yl]carbamate] |  |  |  | 0.02 nM | 14.6 nM
COc1ccc2nc(C3CC3)c3c(c2c1)C(F)(F)C[C@]1(C[C@H]2C(=O)N[C@]4(C(=O)NS(=O)(=O)C5(C)CC5)C[C@H]4/C=C\CCCCC[C@H](NC(=O)O[C@@H](C)C(C)C)C(=O)N2C1)O3 [Example 250, (2S)-3-methylbutan-2-yl [(2S,6S,12Z,13aS,14aR,16aS)-5′-cyclopropyl-1′,1′-difluoro-9′-methoxy-14a-{[(1-methylcyclopropyl)sulfonyl]carbamoyl}-5,16-dioxo-1,1′,2′,5,6,7,8,9,10,11,13a,14,14a,15,16,16a-hexadecahydrospiro[cyclopropa[e]pyrrolo[1,2-a][1,4]diazacyclopentadecine-2,3′-pyrano[2,3-c]quinolin]-6-yl]carbamate] | 0.024 nM | 6.5 nM |  |  | 
Cc1nc2ccc(C(F)(F)F)cc2c2c1O[C@]1(CC2)C[C@H]2C(=O)N[C@]3(C(=O)NS(=O)(=O)C4(C)CC4)C[C@H]3/C=C\CCCCC[C@H](NC(=O)OC(C)(C)C)C(=O)N2C1 [Example 251, tert-butyl [(2R,6S,12Z,13aS,14aR,16aS)-5′-methyl-14a-{[(1-methylcyclopropyl)sulfonyl]carbamoyl}-5,16-dioxo-9′-(trifluoromethyl)-1,1′,2′,5,6,7,8,9,10,11,13a,14,14a,15,16,16a-hexadecahydrospiro[cyclopropa[e]pyrrolo[1,2-a][1,4]diazacyclopentadecine-2,3′-pyrano[2,3-c]quinolin]-6-yl]carbamate] | 0.021 nM | 14.3 nM |  |  | 
